Data reported in patent US20260250325A1, “Antiviral Polypeptide Membrane Fusion Inhibitor, and Preparation Method and Application Thereof” (priority 2025, published 2026).
Where a SMILES comes first, the peptide text is derived from it. The star is where a group is joined. X1 = CC(C)CCCC(C)C1CCC2C3CC=C4CC(OC(=O)CCC(=O)*)CCC4(C)C3CCC12C

Test system: RSV A long virus strain
Format: cell-based
Conditions: RSV A long virus strain, HEp-2 cells, plaque reduction, 1 day; read-out: IC50
Procedure, shortened: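 Plaque reduction in HEp-2 cells: virus (100 PFU/well) and serially diluted compound (8 concentrations) mixed 1 h, adsorbed 2 h, then overlaid with 0.8% CMC medium plus compound for 1 day at 37 °C. Spots counted after anti-RSV immunostaining; IC50 from normalized inhibition, CC50 from viability data.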

| Molecule | IC50 |
| --- | --- |
| CC[C@H](C)[C@H](NC(=O)[C@H](CCCCN)NC(=O)[C@H](CCCCN)NC(=O)[C@H](CC(C)C)NC(=O)[C@H](CO)NC(=O)[C@H](CCC(=O)O)NC(=O)[C@H](CCC(=O)O)NC(=O)[C@@H](NC(=O)[C@H](CCCCN)NC(=O)[C@H](CCCCN)NC(=O)[C@H](CC(N)=O)NC(=O)[C@@H](NC(=O)[C@H](CCC(=O)O)NC(=O)[C@H](CCC(=O)O)NC(=O)[C@@H](NC(=O)[C@H](CCCCN)NC(=O)[C@H](CCCCN)NC(=O)[C@H](CC(=O)O)NC(=O)[C@H](Cc1ccccc1)NC(=O)[C@H](CCC(=O)O)NC(=O)[C@H](CC(=O)O)NC(C)=O)[C@@H](C)CC)C(C)C)[C@@H](C)CC)C(=O)N[C@@H](CCC(=O)O)C(=O)N[C@@H](CCC(=O)O)C(=O)N[C@@H](CO)C(=O)N[C@@H](CC(=O)O)C(=O)N[C@@H](CCCCN)C(=O)N[C@@H](CCCCN)C(=O)N[C@@H](CC(C)C)C(=O)N[C@@H](CCC(=O)O)C(=O)N[C@@H](CCC(=O)O)C(=O)N[C@H](C(=O)N[C@@H](CCC(=O)O)C(=O)N[C@@H](C)C(=O)N[C@@H](C)C(=O)N[C@@H](C)C(=O)N[C@@H](CCCCN)C(=O)N[C@@H](CCCCNC(=O)CCC(=O)OC1CCC2(C)C(=CCC3C2CCC2(C)C(C(C)CCCC(C)C)CCC32)C1)C(N)=O)C(C)C (some centres unmarked) [Compound 21] (Ac-DEFDKKIEEVNKKIEESLKKIEESDKKLEEVEAAAKK(X1)-NH2) | 14.6 nM |
| Ac-SLEQVNEKINQSLAFIRKSDEINQSDEEVNKSDELLEAAAKK-NH2 [Compound 50] | 15.1 nM |
